We go through three compounds from ChEMBL document CHEMBL1148190, “Xestokerols A, B, and C, New C 29 Steroids with a Cyclopropane Ring from the Okinawan Marine Sponge Xestospongia sp” (J Nat Prod, 1993).

Assay [1] deals with Micrococcus luteus. The assay is described as follows: Antibacterial activity against Sarcina lutea. The class given is functional.
The test system of assay [2] is Bacillus subtilis. In words: Antibacterial activity against Bacillus subtilis. The class given is functional.
The next assay deals with L1210. The assay is described as follows: Cytotoxicity against mouse L1210 cells. The class given is functional, cell-based.
Another assay has as its system KB. The assay is described as follows: Cytotoxicity against human KB cells. The assay is classed as functional, cell-based.
In assay [3] the test system is Staphylococcus aureus. The assay is described as follows: Antibacterial activity against Staphylococcus aureus. The class given is functional.
The test system of assay [4] is Staphylococcus aureus. In words: Antibacterial activity against Staphylococcus aureus at 260 ug/ml. The class given is functional, organism-based.
For assay [5], the system named is Micrococcus luteus. In words: Antibacterial activity against Sarcina lutea at 260 ug/ml. The assay is classed as functional, organism-based.
Assay [6] has as its system Bacillus subtilis. In words: Antibacterial activity against Bacillus subtilis at 260 ug/ml. The class given is functional, organism-based.

Converted amounts (≈) assume the structure as drawn. The source made the active and inactive calls. Bounds are passed on as bounds.

As usually defined, the MIC is the smallest concentration in the dilution series that meets the test's criterion for growth inhibition. Low readings indicate inhibition by little substance, high ones a need for much substance. As usually defined, the IC50 is the concentration at which inhibition is half-maximal. Low values mean greater potency in that assay, high ones weaker potency in that assay. As to `CC1CC1C(C)CC(O)C(O)(CO)[C@H]1CC[C@H]2[C@@H]3CC[C@H]4CC(=O)CC[C@]4(C)[C@H]3C[C@@H](O)[C@]12C` (stereo partly drawn) [XESTOKEROL A], the MIC with Micrococcus luteus [1], against Bacillus subtilis [2] and in the assay with Staphylococcus aureus [3] was 16 µg/mL (≈ 33.6 µM) throughout. The IC50 in the assay on L1210 turned out to be 2.1 µg/mL (≈ 4.41 µM); with KB, 4.4 µg/mL (≈ 9.23 µM).
For `CC(CCC(C)(O)[C@H]1CC[C@H]2[C@@H]3[C@H](O)C[C@H]4CC(=O)CC[C@]4(C)[C@H]3C[C@@H](O)[C@]12C)C1CC1C` (stereo partly drawn) [XESTOKEROL B], the result in the assay with Staphylococcus aureus [4], in the assay on Micrococcus luteus [5] and in the assay with Bacillus subtilis [6] was inactive. For the same compound, the IC50 stood at 2.2 µg/mL (≈ 4.78 µM) with L1210 and 4.6 µg/mL (≈ 9.98 µM) with KB.
The compound `C=C(C(=O)CC(C)C1CC1C)[C@H]1CC[C@H]2[C@@H]3CC[C@H]4CC(=O)CC[C@]4(C)[C@H]3C[C@@H](O)[C@]12C` (stereo partly drawn) [XESTOKEROL C] yielded an MIC with Micrococcus luteus [1] of 66 µg/mL (≈ 150 µM). The IC50 is 0.78 µg/mL (≈ 1.77 µM) in the assay with L1210 and > 10 µg/mL in the assay on KB.
